Consider one compound from ChEMBL document CHEMBL5365457, “Selective HDAC3 Inhibitors with Potent In Vivo Antitumor Efficacy against Triple-Negative Breast Cancer” (J Med Chem, 2023).

The target in one series is Histone deacetylase 3 (Homo sapiens, UniProt O15379). The experiment in a line: Inhibition of human recombinant HDAC3 at 1 uM measured after 30 mins by fluorescence based microplate assay relative to control.
Series [1] can be described thus: Cytotoxicity against human HEK293 cells assessed as inhibition of cell growth incubated for 72 hrs by MTT assay. It is filed as toxicity, cell-based. On the technique in general: Tetrazolium dyes change colour on reduction, which living cells bring about.
A short description of series [2]: AUC (0 to infinity) in Wistar rat at 5 mg/kg, ip measured upto 24 hrs by HPLC analysis. It is filed as ADME, organism-based. Set-up: dose 5 mg/kg, time < 24 hrs, route ip. The following applies: in vivo.
Series [3] is described as follows: Apparent volume of distribution in Wistar rat at 5 mg/kg, ip measured upto 24 hrs by HPLC analysis. Conditions: in vivo. The format is ADME, organism-based.
In a further series the target is Histone deacetylase 1 (Homo sapiens, UniProt Q13547). The experiment in a line: Inhibition of human recombinant HDAC1 incubated for 15 mins by fluorescence based microplate analysis.
A further series addresses Histone deacetylase 2 (Homo sapiens, UniProt Q92769). The experiment in a line: Inhibition of human recombinant HDAC2 incubated for 30 mins by fluorescence based microplate analysis.
Series [4] deals with T1, Protein deacetylase HDAC6 (Homo sapiens, UniProt Q9UBN7).
T1 sequence (Q9UBN7 whole entry): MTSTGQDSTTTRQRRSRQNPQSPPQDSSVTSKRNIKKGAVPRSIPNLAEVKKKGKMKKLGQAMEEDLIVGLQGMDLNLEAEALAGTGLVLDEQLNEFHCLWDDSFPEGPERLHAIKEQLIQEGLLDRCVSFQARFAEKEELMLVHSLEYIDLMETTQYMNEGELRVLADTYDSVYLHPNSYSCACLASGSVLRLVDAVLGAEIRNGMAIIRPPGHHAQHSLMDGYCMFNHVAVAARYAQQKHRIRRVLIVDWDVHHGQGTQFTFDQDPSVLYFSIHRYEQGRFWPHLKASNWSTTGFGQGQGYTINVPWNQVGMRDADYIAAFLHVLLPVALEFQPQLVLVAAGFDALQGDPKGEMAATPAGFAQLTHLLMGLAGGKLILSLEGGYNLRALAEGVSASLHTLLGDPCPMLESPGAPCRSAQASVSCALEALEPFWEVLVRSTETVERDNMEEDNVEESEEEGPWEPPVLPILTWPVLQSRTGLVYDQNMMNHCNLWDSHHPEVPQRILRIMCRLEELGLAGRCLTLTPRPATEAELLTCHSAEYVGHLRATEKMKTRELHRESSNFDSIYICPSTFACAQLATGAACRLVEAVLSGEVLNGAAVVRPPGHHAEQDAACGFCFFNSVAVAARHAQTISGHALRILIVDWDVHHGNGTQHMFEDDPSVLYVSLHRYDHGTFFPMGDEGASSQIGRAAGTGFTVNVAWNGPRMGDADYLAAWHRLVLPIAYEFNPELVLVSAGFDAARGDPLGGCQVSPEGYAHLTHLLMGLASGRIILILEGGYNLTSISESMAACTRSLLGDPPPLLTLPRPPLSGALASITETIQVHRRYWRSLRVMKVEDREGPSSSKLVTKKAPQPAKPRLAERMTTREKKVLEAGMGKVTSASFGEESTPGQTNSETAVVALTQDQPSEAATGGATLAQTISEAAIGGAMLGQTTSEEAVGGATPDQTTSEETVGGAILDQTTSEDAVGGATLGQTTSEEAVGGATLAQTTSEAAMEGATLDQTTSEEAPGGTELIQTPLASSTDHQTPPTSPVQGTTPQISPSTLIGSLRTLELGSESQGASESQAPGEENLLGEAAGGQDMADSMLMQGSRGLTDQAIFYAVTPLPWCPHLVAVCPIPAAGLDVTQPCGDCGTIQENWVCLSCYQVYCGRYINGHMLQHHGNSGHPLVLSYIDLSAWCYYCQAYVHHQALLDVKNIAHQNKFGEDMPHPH
As to the kind of experiment: Inhibition of human recombinant HDAC6 incubated for 10 mins by fluorescence based microplate analysis.

Series [5] can be described thus: Selectivity ratio of IC50 for cytotoxicity against human MCF-10A cells assessed as inhibition of cell growth to IC50 for cytotoxicity against human MCF7 cells assessed as inhibition of cell growth. Conditions: MCF-10A cells versus MCF7 cells, read-out: Ratio IC50. The format is toxicity, cell-based.
Series [6] in a line: Selectivity ratio of IC50 for cytotoxicity against human MCF-10A cells assessed as inhibition of cell growth to IC50 for cytotoxicity against human MDA-MB-231 cells assessed as inhibition of cell growth. The format is toxicity, cell-based. The following applies: MCF-10A cells versus MDA-MB-231 cells, read-out: Ratio IC50.
The nature of series [7]: Selectivity ratio of IC50 for cytotoxicity against human HEK293 cells assessed as inhibition of cell growth to IC50 for cytotoxicity against human MDA-MB-231 cells assessed as inhibition of cell growth. The format is toxicity, cell-based. The following applies: HEK293 cells versus MDA-MB-231 cells, read-out: Ratio IC50.
Series [8] can be described thus: Selectivity ratio of IC50 for cytotoxicity against human HCEC cells assessed as inhibition of cell growth to IC50 for cytotoxicity against human MCF7 cells assessed as inhibition of cell growth. It is filed as toxicity, cell-based. Conditions: HCEC cells versus MCF7 cells, read-out: Ratio IC50.
Series [9] concerns the target T2, Histone deacetylase 3 (Mus musculus) (UniProt O88895).
T2 sequence (whole entry): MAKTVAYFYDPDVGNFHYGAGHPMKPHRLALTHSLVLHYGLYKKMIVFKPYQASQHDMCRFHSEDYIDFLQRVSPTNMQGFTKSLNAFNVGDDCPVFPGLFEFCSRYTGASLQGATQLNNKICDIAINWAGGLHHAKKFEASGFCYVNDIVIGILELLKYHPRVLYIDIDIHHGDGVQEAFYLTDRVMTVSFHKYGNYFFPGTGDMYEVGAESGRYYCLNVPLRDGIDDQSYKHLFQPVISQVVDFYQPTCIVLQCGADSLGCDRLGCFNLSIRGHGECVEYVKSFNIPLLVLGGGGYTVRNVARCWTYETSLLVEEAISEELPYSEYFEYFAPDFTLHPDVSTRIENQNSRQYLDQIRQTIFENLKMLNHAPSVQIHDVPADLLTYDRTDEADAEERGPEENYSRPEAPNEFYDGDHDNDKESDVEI
The experiment in a line: Inhibition of HDAC3 in mouse 4T1 cells assessed as increase in acetylation of H3K9 level at 1 uM incubated for 72 hrs by western blot analysis. The format is cell-based. In general terms: Immunoblotting shows a protein as a band on a membrane.

For a further series, the system named is MDA-MB-231. The experiment in a line: Cytotoxicity against wild type human MDA-MB-231 cells assessed as reduction in cell viability incubated for 72 hrs by MTT assay. The format is functional, cell-based. The following applies: MDA-MB-231, 72 h.
The test system of series [10] is 4T1. As to the kind of experiment: Antitumor activity against mouse 4T1 cells implanted in BALB/c mouse assessed as tumor growth inhibition at 5 mg/kg, ip measured on day 21. It is filed as functional. The following applies: 4T1, 504 h, time 21 day, read-out: TGI.
The nature of series [11]: Toxicity in BALB/c mouse implanted with mouse 4T1 cells assessed as effect on cell size in liver at 5 to 15 mg/kg, ip measured after 21 days by H and E staining based assay. Conditions: in vivo, 504 h, dose 5-15 mg/kg, time 21 day. The format is organism-based.
For series [12], the system named is 4T1. As to the kind of experiment: Antitumor activity against mouse 4T1 cells implanted in BALB/c mouse assessed as decrease in number of lung aggregated cells at 15 mg/kg, ip measured for 7 days by H and E staining based assay. The format is functional, organism-based. The following applies: time 7.0 day.
For series [13], the system named is 4T1. The experiment in a line: Antitumor activity against mouse 4T1 cells implanted in BALB/c mouse assessed as reduction in CD44 protein level in tumor at 5 to 15 mg/kg, ip by Western blot analysis. The format is functional, organism-based. The following applies: dose 5-15 mg/kg.

Calls of active or inactive are those of the source. The calls are words filed in the database; no cut-off is given here.

As usually defined, the inhibition is how much of the control response was suppressed. In general, IC50 refers to the concentration at which inhibition is half-maximal. The AUC(0-inf) is total exposure, with the tail of the curve extrapolated. A lower AUC(0-inf) goes with low exposure.

Sequence of Histone deacetylase 3 (O15379 whole entry): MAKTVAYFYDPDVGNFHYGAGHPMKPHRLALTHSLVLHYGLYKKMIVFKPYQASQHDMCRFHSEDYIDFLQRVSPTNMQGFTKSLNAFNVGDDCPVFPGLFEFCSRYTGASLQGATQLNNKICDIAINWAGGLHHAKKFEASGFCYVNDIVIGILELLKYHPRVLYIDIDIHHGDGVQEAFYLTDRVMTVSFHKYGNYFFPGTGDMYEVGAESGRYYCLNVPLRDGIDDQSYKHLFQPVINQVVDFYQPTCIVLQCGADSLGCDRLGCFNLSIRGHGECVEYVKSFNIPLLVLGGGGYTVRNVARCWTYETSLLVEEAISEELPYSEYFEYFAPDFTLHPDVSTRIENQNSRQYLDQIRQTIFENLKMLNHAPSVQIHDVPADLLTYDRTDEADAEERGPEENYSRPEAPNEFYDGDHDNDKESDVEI
Sequence of Histone deacetylase 2 (Q92769 whole entry): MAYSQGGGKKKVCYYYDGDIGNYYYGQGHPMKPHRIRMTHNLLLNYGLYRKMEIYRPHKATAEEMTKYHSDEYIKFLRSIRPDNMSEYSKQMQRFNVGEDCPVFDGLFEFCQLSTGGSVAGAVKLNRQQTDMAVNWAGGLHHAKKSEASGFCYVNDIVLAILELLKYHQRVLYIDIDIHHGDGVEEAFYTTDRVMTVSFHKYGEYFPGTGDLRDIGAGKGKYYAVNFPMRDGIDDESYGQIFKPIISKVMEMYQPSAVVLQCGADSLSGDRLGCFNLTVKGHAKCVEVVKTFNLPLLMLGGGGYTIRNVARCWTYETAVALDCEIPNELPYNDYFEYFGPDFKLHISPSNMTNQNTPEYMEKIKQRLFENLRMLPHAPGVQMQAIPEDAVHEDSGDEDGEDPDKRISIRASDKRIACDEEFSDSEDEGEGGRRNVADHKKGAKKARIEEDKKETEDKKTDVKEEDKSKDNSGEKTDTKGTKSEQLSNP
Sequence of Histone deacetylase 1 (Q13547 whole entry): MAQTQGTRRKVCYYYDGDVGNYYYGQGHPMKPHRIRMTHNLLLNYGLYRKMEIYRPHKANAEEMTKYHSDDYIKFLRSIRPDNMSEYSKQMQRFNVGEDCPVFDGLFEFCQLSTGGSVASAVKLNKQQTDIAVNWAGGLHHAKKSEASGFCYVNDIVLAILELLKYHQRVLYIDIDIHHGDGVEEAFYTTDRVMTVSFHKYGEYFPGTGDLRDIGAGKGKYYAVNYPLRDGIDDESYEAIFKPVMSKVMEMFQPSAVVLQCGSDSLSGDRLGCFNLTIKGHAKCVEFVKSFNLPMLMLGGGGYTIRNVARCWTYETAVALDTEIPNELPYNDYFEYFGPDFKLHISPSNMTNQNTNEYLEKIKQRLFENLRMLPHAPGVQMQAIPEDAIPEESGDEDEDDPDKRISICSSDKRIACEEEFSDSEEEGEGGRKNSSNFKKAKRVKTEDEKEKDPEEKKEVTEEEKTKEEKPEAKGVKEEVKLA

As for `CCCNNC(=O)c1cnc(NCc2ccc(OC)cc2)cn1`, on Histone deacetylase 3, the inhibition is over 70%. In [1], the IC50 at 72 h was determined as 239000 nM. The AUC(0-inf) in series [2] turned out to be 4320 ng·h/mL. In addition, the Vz/F in series [3] was 7.01 (mg/kg)/(ug/ml). Further, the IC50 at Histone deacetylase 1 was found to be 1980 nM; at Histone deacetylase 2, 1700 nM; in series [4] it was 25900 nM; in the series on MDA-MB-231, 743 nM. Besides, the selectivity ratio in [5] is 385; in series [6], 385; in [7] it was 286; in [8] it was 286. The inhibition result in series [9] is “Active”. The inhibition in vivo at 5 mg/kg in the series on 4T1 [10] came out at 92.9%. Also, the Activity entry in series [11] is “Non-Toxic”. For the same compound, the result in the series on 4T1 [12] and in the series on 4T1 [13] was Active.
